Assay [1] deals with Beta-1 adrenergic receptor (Rattus norvegicus, UniProt P18090).
Description: Antagonist activity at rat wild type beta-1 adrenergic receptor expressed in CHO cells
In assay [2] the target is Beta-1 adrenergic receptor (Rattus norvegicus, UniProt P18090, Y356F).
For assay [3], the target named is Beta-1 adrenergic receptor (Rattus norvegicus, UniProt P18090, Y356A).
In assay [4] the target is Beta-1 adrenergic receptor (Rattus norvegicus, UniProt P18090, W134A).
The target in assay [5] is Beta-1 adrenergic receptor (Rattus norvegicus, UniProt P18090, S190A).
Chain of Beta-1 adrenergic receptor (Rattus norvegicus, UniProt P18090, S190A) (P18090 whole entry S190A): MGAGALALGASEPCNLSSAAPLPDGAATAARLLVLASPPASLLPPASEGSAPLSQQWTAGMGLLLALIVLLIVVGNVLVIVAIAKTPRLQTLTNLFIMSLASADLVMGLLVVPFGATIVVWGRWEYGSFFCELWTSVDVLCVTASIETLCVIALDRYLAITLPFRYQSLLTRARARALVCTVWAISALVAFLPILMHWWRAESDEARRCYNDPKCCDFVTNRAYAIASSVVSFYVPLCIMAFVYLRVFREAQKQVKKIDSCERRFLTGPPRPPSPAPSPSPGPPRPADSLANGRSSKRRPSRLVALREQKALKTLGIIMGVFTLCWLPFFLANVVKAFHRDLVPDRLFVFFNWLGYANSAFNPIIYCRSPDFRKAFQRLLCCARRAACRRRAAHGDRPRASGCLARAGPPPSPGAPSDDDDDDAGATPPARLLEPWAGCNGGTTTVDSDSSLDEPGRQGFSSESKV

Chain of Beta-1 adrenergic receptor (Rattus norvegicus, UniProt P18090) (P18090 whole entry): as the sequence (P18090 whole entry S190A) above, with A190S counted along it
Chain of Beta-1 adrenergic receptor (Rattus norvegicus, UniProt P18090, W134A) (P18090 whole entry W134A): as the sequence (P18090 whole entry S190A) above, with W134A, A190S counted along it
Chain of Beta-1 adrenergic receptor (Rattus norvegicus, UniProt P18090, Y356F) (P18090 whole entry Y356F): as the sequence (P18090 whole entry S190A) above, with A190S, Y356F counted along it
Chain of Beta-1 adrenergic receptor (Rattus norvegicus, UniProt P18090, Y356A) (P18090 whole entry Y356A): as the sequence (P18090 whole entry S190A) above, with A190S, Y356A counted along it

Consider `CCOCCOc1ccc(OC[C@@H](O)CNCCc2ccc(OC)c(OC)c2)cc1`, for which the Ki in assay [1] is 50.1 nM; in assay [2] it was 100 nM; in assay [3] it was 0.794 µM; in assay [4], 79.4 nM; in assay [5] it was 12600 nM.

Consider `CC(C)(C)NCC(O)COc1cccc2[nH]c(C#N)c(I)c12` (stereo not given), for which the dissociation constant Kd in assay [1] is 0.0631 nM; in assay [2] it was 0.0794 nM; in assay [3], 0.316 nM; in assay [4] it was 0.0631 nM; in assay [5], 0.0631 nM.

For the molecule `Cn1cc(C(F)(F)F)nc1-c1ccc(OCC(O)CNCCOc2ccc(O)c(C(N)=O)c2)cc1` (stereo not given) [CGP-20712A], the inhibition constant (Ki) was 1.26 nM in assay [1]; 2 nM in assay [2]; 10 µM in assay [3]; 7.94 nM in assay [4]; 794 nM in assay [5].

On to `CC(C)(C)NCC(O)COc1cccc2[nH]c(C#N)cc12` (stereo not given) [CYANOPINDOLOL], for which the Ki in assay [1] is 0.0501 nM; in assay [2] it was 0.0398 nM; in assay [3], 0.316 µM; in assay [4], 0.126 nM; in assay [5], 0.316 nM.

For `N#Cc1cc(OCCOCC2CC2)ccc1OCC(O)CNCCNC(=O)Nc1ccc(O)cc1` (stereo not given) [LK-204545], the Ki in assay [1] was 7.94 nM; in assay [2], 79.4 nM; in assay [3], 79.4 µM; in assay [4] it was 63.1 nM; in assay [5], 100 nM.

(Values after ChEMBL document CHEMBL1148532, “Role of Tyr(356(7.43)) and Ser(190(4.57)) in antagonist binding in the rat beta1-adrenergic receptor” (J Med Chem, 2006).)
